Common to all, as to conditions: in vivo
The subject of data set [1] is Plasma. Description: Drug level in human plasma assessed as compound formation treated with [14C]brivanib alaninate at 800 mg, po administered as single dose via gavage measured after 2 hrs by HPLC analysis. The class given is ADME, organism-based.
Data set [2] deals with Plasma. Description: Drug level in cynomolgus monkey plasma assessed as compound formation treated with [14C]brivanib alaninate at 10 mg/kg, po administered as single dose via gavage measured after 6 hrs by HPLC analysis. The class given is ADME, organism-based, Macaca fascicularis.
Data set [3] has as its system Plasma. Briefly: Drug level in Sprague-Dawley rat plasma assessed as compound formation treated with [14C]brivanib alaninate at 100 mg/kg, po administered as single dose via gavage measured after 2 hrs by HPLC analysis. The class given is ADME, organism-based.
The nature of data set [4]: Drug excretion in cynomolgus monkey urine treated with [14C]brivanib alaninate at 10 mg/kg, po administered as single dose via gavage by HPLC analysis. The class given is ADME, organism-based, Macaca fascicularis.
Data set [5] deals with Plasma. Briefly: Drug level in human plasma assessed as compound formation treated with [14C]brivanib alaninate at 800 mg, po administered as single dose via gavage measured after 8 hrs by HPLC analysis. The class given is ADME, organism-based.
Data set [6] concerns Plasma. Description: Drug level in cynomolgus monkey plasma assessed as compound formation treated with [14C]brivanib alaninate at 10 mg/kg, po administered as single dose via gavage measured after 2 hrs by HPLC analysis. The class given is ADME, organism-based, Macaca fascicularis.
The subject of data set [7] is Plasma. Description: Drug level in Sprague-Dawley rat plasma assessed as compound formation treated with [14C]brivanib alaninate at 100 mg/kg, po administered as single dose via gavage measured after 1 hr by HPLC analysis. The class given is ADME, organism-based.
A short description of data set [8]: Drug excretion in cynomolgus monkey feces treated with [14C]brivanib alaninate at 10 mg/kg, po administered as single dose via gavage by HPLC analysis. The class given is ADME, organism-based, Macaca fascicularis.
Data set [9] concerns Plasma. Description: Drug level in cynomolgus monkey plasma assessed as compound formation treated with [14C]brivanib alaninate at 10 mg/kg, po administered as single dose via gavage measured after 12 hrs by HPLC analysis. The class given is ADME, organism-based, Macaca fascicularis.
Data set [10] in a line: Drug excretion in human urine treated with [14C]brivanib alaninate at 800 mg, po administered as single dose […] by HPLC analysis. The class given is ADME, organism-based.
Data set [11] concerns Plasma. Briefly: Drug level in cynomolgus monkey plasma assessed as compound formation treated with [14C]brivanib alaninate at 10 mg/kg, po administered as single dose via gavage measured after 4 hrs by HPLC analysis. The class given is ADME, organism-based, Macaca fascicularis.
The nature of data set [12]: Drug excretion in bile duct-cannulated rat bile treated with [14C]brivanib alaninate at 100 mg/kg, po administered as single dose via gavage by HPLC analysis. The class given is ADME, organism-based.
Data set [13] concerns Plasma. Briefly: Drug level in human plasma assessed as compound formation treated with [14C]brivanib alaninate at 800 mg, po administered as single dose via gavage measured after 4 hrs by HPLC analysis. The class given is ADME, organism-based.
Data set [14] is described as follows: Drug excretion in Sprague-Dawley rat feces treated with [14C]brivanib alaninate at 100 mg/kg, po administered as single dose via gavage by HPLC analysis. The class given is ADME, organism-based.
The subject of data set [15] is Plasma. Briefly: Drug level in human plasma assessed as compound formation treated with [14C]brivanib alaninate at 800 mg, po administered as single dose via gavage measured after 12 hrs by HPLC analysis. The class given is ADME, organism-based.
A short description of data set [16]: Drug excretion in bile duct-cannulated cynomolgus monkey bile treated with [14C]brivanib alaninate at 10 mg/kg, po administered as single dose via gavage by HPLC analysis. The class given is ADME, organism-based, Macaca fascicularis.
The subject of data set [17] is Plasma. Description: Drug level in Sprague-Dawley rat plasma assessed as compound formation treated with [14C]brivanib alaninate at 100 mg/kg, po administered as single dose via gavage measured after 6 hrs by HPLC analysis. The class given is ADME, organism-based.
A short description of data set [18]: Drug excretion in human feces treated with [14C]brivanib alaninate at 800 mg, po administered as single dose […] by HPLC analysis. The class given is ADME, organism-based.
In data set [19] the test system is Plasma. Description: Drug level in human plasma assessed as compound formation treated with [14C]brivanib alaninate at 800 mg, po administered as single dose via gavage measured after 1 hr by HPLC analysis. The class given is ADME, organism-based.
The subject of data set [20] is Plasma. Description: Drug level in cynomolgus monkey plasma assessed as compound formation treated with [14C]brivanib alaninate at 10 mg/kg, po administered as single dose via gavage measured after 1 hr by HPLC analysis. The class given is ADME, organism-based, Macaca fascicularis.
In data set [21] the test system is Cynomolgus monkey. Description: Drug uptake in cynomolgus monkey plasma treated with [14C]brivanib alaninate assessed as AUC (0 to 12 hrs) of total radio activity at 10 mg/kg, po administered as single oral dose by HPLC analysis. The class given is ADME, organism-based, Macaca fascicularis.
The test system of data set [22] is Homo sapiens. Briefly: Drug uptake in human plasma treated with [14C]brivanib alaninate assessed as AUC (0 to 12 hrs) of total radio activity at 800 mg, po administered as single oral dose by HPLC analysis. The class given is ADME, organism-based.
In data set [23] the test system is Homo sapiens. Briefly: AUC (0 to 12 hrs) human plasma treated with [14C]brivanib alaninate at 800 mg, po administered as single oral dose by HPLC analysis. The class given is ADME, organism-based.
Data set [24] relates to Cynomolgus monkey. Description: AUC (0 to 12 hrs) cynomolgus monkey plasma treated with [14C]brivanib alaninate at 10 mg/kg, po administered as single oral dose by HPLC analysis. The class given is ADME, organism-based, Macaca fascicularis.
Data set [25] relates to Rattus norvegicus. Description: AUC (0 to 6 hrs) Sprague-Dawley rat plasma treated with [14C]brivanib alaninate at 100 mg/kg, po administered as single oral dose by HPLC analysis. The class given is ADME, organism-based.
Data set [26] in a line: Drug excretion in Sprague-Dawley rat urine treated with [14C]brivanib alaninate at 100 mg/kg, po administered as single dose via gavage by HPLC analysis. The class given is ADME, organism-based.
For data set [27], the system named is Rattus norvegicus. Briefly: Drug uptake in Sprague-Dawley rat plasma treated with [14C]brivanib alaninate assessed as AUC (0 to 6 hrs) of total radio activity at 100 mg/kg, po administered as single oral dose by HPLC analysis. The class given is ADME, organism-based.
A short description of data set [28]: Drug level in Sprague-Dawley rat urine treated with [14C]brivanib alaninate at 100 mg/kg, po administered as single dose via gavage by mass spectrometry. The class given is ADME, organism-based.

Molecules are shown by their SMILES.

`Cc1cc2c(F)c(Oc3ncnn4cc(O[C@@H]5O[C@H](C(=O)O)[C@@H](O)[C@H](O)[C@H]5O)c(C)c34)ccc2[nH]1`: the Compound recovery in data set [1] is listed as 3%; in data set [2], “metabolite_not_detected”; in data set [3] it was 6.5%; in [4] it was 0.8%; in [5], 2%; in data set [6] it was “metabolite_not_detected”. The Compound recovery in data set [7] is recorded as 5.1%; in [8], “metabolite_not_detected”; in [9], “metabolite_not_detected”; in data set [10] it was 0.8%; in data set [11], “metabolite_not_detected”; in data set [12], 27.4%. Besides, the Compound recovery result is recorded as “metabolite_not_detected” in data set [13]; “metabolite_not_detected” in data set [14]; 1.2% in data set [15]; “metabolite_not_detected” in data set [16]; 9.1% in data set [17]; “metabolite_not_detected” in data set [18]. In addition, the Compound recovery in data set [19] was 0.8%; in data set [20], “metabolite_not_detected”.
Turning to `Cc1cc2c(F)c(Oc3ncnn4cc(OS(=O)(=O)O)c(C)c34)ccc2[nH]1`, the Compound recovery in data set [1] is 6.7%; in data set [2] it was 9.1%; in [3], 26.8%; in [4], 0.7%; in data set [5], 7.6%; in data set [6], 5.9%. The Compound recovery is 30.7% in data set [7]; “metabolite_not_detected” in data set [8]; 5.7% in data set [9]; “metabolite_not_detected” in data set [10]; 9.4% in data set [11]; 25.4% in data set [12]. In addition, the Compound recovery in [13] is 4.4%; in [14], 4.6%; in data set [15], 8.9%; in [16], 1.9%; in data set [17] it was 20.9%; in data set [26], 2.7%. The Compound recovery result is recorded as “metabolite_not_detected” in data set [18], 8.8% in data set [19] and 2.9% in data set [20]. In addition, the entries for the “AUC metabolite/AUC radiolabel” value in data set [21], in [22] and in data set [27] were 8.1%, 5.8% and 26.8%, respectively. Further, the figures for the AUC in [23], in data set [24] and in data set [25] were 3835.4 ugequiv/l.hr, 5622.3 ugequiv/l.hr and 37494.4 ugequiv/l.hr, respectively.
On to `Cc1c(O)cn2ncnc(Oc3ccc4[nH]c(C(=O)O)cc4c3F)c12`, for which the Compound recovery entry in data set [4] was “metabolite_not_detected”; in [8] it was “metabolite_not_detected”; in data set [10], “metabolite_not_detected”; in [28], “metabolite_detected”; in data set [12], 1.8%; in data set [14] it was “metabolite_not_detected”. In addition, the Compound recovery result in data set [16] and in [18] was “metabolite_not_detected” each time.
For `Cc1c(OS(=O)(=O)O)cn2ncnc(Oc3ccc4[nH]c(C(=O)O)cc4c3F)c12`, the Compound recovery in data set [1] worked out at 11.3%; in data set [2], 9.1%; in data set [3] it was 22.1%; in data set [4] it was 0.3%; in [5], 23%; in [6], 3%. The Compound recovery in data set [7] is 18.2%; in [8], “metabolite_not_detected”; in data set [9], 12.5%; in data set [10], 3.3%; in data set [11], 4.6%; in data set [12] it was 4%. Besides, the Compound recovery in [13] was 20%; in [14] it was “metabolite_not_detected”; in [15] it was 24.3%; in data set [16], 1.4%; in data set [17], 20%; in data set [26] it was 5.1%. Also, the Compound recovery result in [18] was “metabolite_not_detected”; in data set [19], “metabolite_not_detected”; in data set [20], 3.3%. Also, the results for the “AUC metabolite/AUC radiolabel” value in data set [21], in data set [22] and in data set [27] were 6.6%, 14.7% and 21.1%, respectively. The AUC turned out to be 9668.9 ugequiv/l.hr in [23], 4597.3 ugequiv/l.hr in data set [24] and 29545.4 ugequiv/l.hr in [25].
As to `Cc1c(O)cn2ncnc(Oc3ccc4[nH]c(CO)cc4c3F)c12`, the Compound recovery result in data set [4] is “metabolite_not_detected”; in data set [8], “metabolite_not_detected”; in data set [10] it was “metabolite_not_detected”; in data set [12], “metabolite_not_detected”; in [14], 1.5%; in data set [16], “metabolite_not_detected”. Further, the Compound recovery in [26] is recorded as 0.4%; in data set [18], “metabolite_not_detected”.
As to `Cc1c(OS(=O)(=O)O)cn2ncnc(Oc3ccc4[nH]c(CO)cc4c3F)c12`, the Compound recovery entry in data set [4] is listed as “metabolite_not_detected”; in data set [8], “metabolite_not_detected”; in data set [10], “metabolite_not_detected”; in [12], “metabolite_not_detected”; in [14] it was “metabolite_not_detected”; in data set [16] it was 0.4%. For the same molecule, the Compound recovery result in data set [26] and in data set [18] was “metabolite_not_detected” throughout.
Regarding `Cc1cc2c(F)c(Oc3ncnn4cc(O)c(C)c34)ccc2[nH]1`, the Compound recovery result in [1] is given as “metabolite_not_detected”; in data set [2], “metabolite_not_detected”; in data set [3] it was 1.9%; in data set [4], “metabolite_not_detected”; in data set [5], “metabolite_not_detected”; in [6] it was “metabolite_not_detected”. Also, the Compound recovery in data set [7] is 2.4%; in [8] it was 1.8%; in data set [9] it was “metabolite_not_detected”; in [10], “metabolite_not_detected”; in data set [11], “metabolite_not_detected”; in [12], 10.8%. For the same molecule, the Compound recovery result in data set [13] was “metabolite_not_detected”; in data set [14], 42.8%; in data set [15], “metabolite_not_detected”; in data set [16], 0.4%; in data set [17] it was 1.7%; in data set [18], “metabolite_not_detected”. The Compound recovery entry in data set [19] and in [20] was “metabolite_not_detected” throughout.

For the origin of these results see ChEMBL document CHEMBL3526109 (Drug Metab Dispos, 2011).
